Test results: ChEMBL document CHEMBL4665541, “Search for new therapeutic options for the uncommon pathogen Mycobacterium chimaera: an open drug discovery approach” (Lancet Microbe, 2021)

What was measured:
Type in all cases: functional, organism-based
Design in all cases: conc 20 uM
[1] = system: Mycobacteroides abscessus; experiment: (§1) Inhibition of mycobacterial growth using the resazurin microtitre cell viability assay (REMA), compounds at final concentration of 20 µM (2% v/v DMSO). Hits were classed as compounds that inhibited bacterial growth by 70% or more compared to drug-free controls.; conditions: ATCC19977
[2] = system: Mycobacterium tuberculosis; experiment: as §1; conditions: H37Rv
[3] = system: Mycobacterium intracellulare subsp. chimaera; experiment: as §1; conditions: NCTC13781

| Substance | Survival [1] | Survival [2] | Survival [3] |
| --- | --- | --- | --- |
| MMV675968 | 87.6% | 15% | 1.74% |
| MMV687254 | 113% | 106% | 107% |
| MMV688543 | 101% | 89% | 97.2% |
| MMV006372 | 111% | 101% | 98.4% |
| MMV161996 | 103% | 119% | 108% |
| MMV020081 | 118% | 89.4% | 87.7% |
| MMV688179 | 17.6% | 1.64% | 2.34% |
| MMV688122 | 111% | 2.87% | 96.7% |
| MMV153413 | 111% | 26.5% | 9.37% |
| MMV676589 | 116% | 70.1% | 89% |
| MMV687138 | 102% | 56.3% | 104% |
| MMV021013 | 108% | 100% | 88% |
| MMV676379 | 116% | 98% | 87.9% |
| MMV687807 | 103% | 4.61% | 82.9% |
| MMV688352 | 107% | 89.6% | 103% |
| MMV687251 | 116% | 5.28% | 88.3% |
| MMV676555 | 123% | 71.2% | 39% |
| MMV019551 | 103% | 77.8% | 90.1% |
| MMV688415 | 101% | 88.9% | 97.2% |
| MMV689000 | 115% | 89.8% | 101% |
| MMV687696 | 109% | 44.7% | 75.7% |
| MMV010545 | 111% | 91.4% | 86.4% |
| MMV020388 | 113% | 88.5% | 102% |
| MMV407834 | 113% | 97% | 114% |
| MMV069458 | 102% | 11.9% | 94.1% |
| MMV688271 | 108% | 1.1% | 3.73% |

| Substance | Survival [1] | Survival [2] | Survival [3] |
| --- | --- | --- | --- |
| MMV676050 | 110% | 84.8% | 95.8% |
| MMV085499 | 106% | 90.8% | 112% |
| MMV668727 | 102% | 100% | 96.8% |
| MMV676388 | 110% | 87.4% | 101% |
| MMV676480 | 104% | 106% | 104% |
| MMV676588 | 102% | 19.7% | 76.5% |
| MMV676412 | 105% | 6.6% | 92.8% |
| MMV688889 | 105% | 58.9% | 89.4% |
| MMV676191 | 99.5% | 100% | 105% |
| MMV023969 | 96% | 19.5% | 92.8% |
| MMV495543 | 84.2% | 85.3% | 86.9% |
| MMV031011 | 109% | 99.4% | 89.4% |
| MMV009135 | 101% | 93.6% | 104% |
| MMV008439 | 112% | 106% | 99.8% |
| MMV020321 | 115% | 90.7% | 91.7% |
| MMV676398 | 111% | 92% | 99.3% |
| MMV658993 | 101% | 83.9% | 100% |
| MMV676269 | 111% | 88.8% | 104% |
| MMV024195 | 103% | 74.2% | 94.1% |
| MMV661713 | 112% | 25.2% | 47.5% |
| MMV689758 | 19.8% | 5.64% | 1.81% |
| MMV047015 | 111% | 52.2% | 85.3% |
| MMV688754 | 109% | 92.9% | 103% |
| MMV690103 | 117% | 105% | 110% |
| MMV676411 | 101% | 16.4% | 98.2% |
| MMV019993 | 95.9% | 97% | 98.9% |

| Substance | Survival [1] | Survival [2] | Survival [3] |
| --- | --- | --- | --- |
| MMV021375 | 111% | 89.6% | 93.8% |
| MMV676063 | 105% | 91% | 112% |
| MMV560185 | 116% | 80.8% | 89.9% |
| MMV687703 | 105% | 4.55% | 3.71% |
| MMV007638 | 123% | 100% | 113% |
| MMV676159 | 106% | 99.4% | 100% |
| MMV688755 | 111% | 7.68% | 107% |
| MMV688978 | 106% | 5.27% | 105% |
| MMV676472 | 115% | 120% | 92.2% |
| MMV019087 | 111% | 74.9% | 92.7% |
| MMV659010 | 112% | 85.6% | 91.7% |
| MMV062221 | 114% | 103% | 112% |
| MMV687813 | 102% | 5.59% | 34.4% |
| MMV675993 | 102% | 92.9% | 109% |
| MMV688417 | 104% | 82.3% | 106% |
| MMV1110498 | 111% | 97.9% | 102% |
| MMV688846 | 20.9% | 69.2% | 112% |
| MMV028694 | 113% | 88.7% | 91.4% |
| MMV023370 | 109% | 102% | 107% |
| MMV019838 | 124% | 84.2% | 81.2% |
| MMV688980 | 87.1% | 99.6% | 92% |
| MMV688955 | 89.9% | 103% | 94.2% |
| MMV099637 | 98.4% | 109% | 95.3% |
| MMV689029 | 119% | 86.9% | 93.5% |
| MMV026313 | 100% | 82.9% | 86.2% |
| MMV688994 | 101% | 13.7% | 80% |

| Substance | Survival [1] | Survival [2] | Survival [3] |
| --- | --- | --- | --- |
| MMV688854 | 114% | 111% | 111% |
| MMV676584 | 115% | 66.8% | 90.2% |
| MMV020517 | 123% | 79.9% | 94% |
| MMV687812 | 26.9% | 26% | 41% |
| MMV688796 | 103% | 99.3% | 93.4% |
| MMV676439 | 114% | 91.7% | 34.7% |
| MMV085210 | 115% | 82.8% | 88.2% |
| MMV688797 | 113% | 80.5% | 96.5% |
| MMV689255 | 124% | 89.2% | 109% |
| MMV009054 | 105% | 98.7% | 100% |
| MMV688469 | 87.3% | 90.9% | 82.8% |
| MMV688514 | 111% | 91.7% | 100% |
| MMV676204 | 107% | 99.7% | 101% |
| MMV007133 | 95% | 98.7% | 95.2% |
| MMV006239 | 112% | 86.9% | 94.8% |
| MMV063404 | 108% | 33.5% | 90.4% |
| MMV687706 | 108% | 99.8% | 92.7% |
| MMV026020 | 113% | 102% | 105% |
| MMV019189 | 97.2% | 77% | 97.4% |
| MMV688888 | 95.5% | 23.3% | 37.8% |
| MMV676442 | 123% | 86.8% | 97.1% |
| MMV676406 | 111% | 67.8% | 105% |
| MMV022236 | 119% | 109% | 109% |
